One experiment addresses T1, COX-2 (Homo sapiens, UniProt P35354).
T1 construct: in the presence of LPS (10 μg/ml) for 24 h at 37° C. in order to induce the COX-2 expression; endogenous in cells; host or cells: human whole blood of healthy volunteers, LPS-stimulated for 24 h; PGE2 read-out
T1 sequence (P35354 18-604): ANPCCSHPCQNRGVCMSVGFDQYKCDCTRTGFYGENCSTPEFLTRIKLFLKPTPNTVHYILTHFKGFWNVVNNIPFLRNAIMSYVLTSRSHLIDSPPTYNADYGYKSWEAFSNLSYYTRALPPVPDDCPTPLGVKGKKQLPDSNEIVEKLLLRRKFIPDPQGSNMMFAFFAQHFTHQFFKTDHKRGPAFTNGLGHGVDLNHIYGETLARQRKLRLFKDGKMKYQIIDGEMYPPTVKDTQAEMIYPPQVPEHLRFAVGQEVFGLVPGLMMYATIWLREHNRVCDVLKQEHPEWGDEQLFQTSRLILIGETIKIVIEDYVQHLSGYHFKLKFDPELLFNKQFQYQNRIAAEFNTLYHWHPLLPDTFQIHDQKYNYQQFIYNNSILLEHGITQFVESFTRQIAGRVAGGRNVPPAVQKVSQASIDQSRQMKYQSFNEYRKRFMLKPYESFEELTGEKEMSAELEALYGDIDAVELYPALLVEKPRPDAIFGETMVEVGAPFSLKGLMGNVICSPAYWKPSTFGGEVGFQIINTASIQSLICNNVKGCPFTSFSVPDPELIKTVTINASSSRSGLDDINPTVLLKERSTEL
In words: COX-2 activity in human whole blood (PGE2, LPS induced). Conditions: for IC50: LPS 10 μg/ml, 24 h at 37° C., PGE2 by EIA; for Ratio COX-1/COX-2: ratio of COX-1/COX-2 IC50 values. In kind it is cell-based. Here is the method: (§1) COX-1 and COX-2 Activities in Human Whole Blood
For the COX-2 activity determination, 500 μl aliquots of blood were incubated in the presence of LPS (10 μg/ml) for 24 h at 37° C. in order to induce the COX-2 expression (Patriagnani et al., J. Pharm. Exper. Ther. 271; 1705-1712 (1994)). Plasma was separated by centrifugation (10 min at 13000 rpm) and kept at −30° C. until PGE2 levels were measured using an enzyme immunoassay kit (EIA). […] IC50 values were obtained by non-linear regression using InPlot, GraphPad software on an IBM computer.

The target in the next experiment is T2, COX-1 (Homo sapiens, UniProt P23219).
T2 construct: Fresh blood from healthy volunteers; endogenous in cells; host or cells: human whole blood of healthy volunteers, stimulated with calcium ionophore A23187; TXB2 read-out
T2 sequence (P23219 24-599): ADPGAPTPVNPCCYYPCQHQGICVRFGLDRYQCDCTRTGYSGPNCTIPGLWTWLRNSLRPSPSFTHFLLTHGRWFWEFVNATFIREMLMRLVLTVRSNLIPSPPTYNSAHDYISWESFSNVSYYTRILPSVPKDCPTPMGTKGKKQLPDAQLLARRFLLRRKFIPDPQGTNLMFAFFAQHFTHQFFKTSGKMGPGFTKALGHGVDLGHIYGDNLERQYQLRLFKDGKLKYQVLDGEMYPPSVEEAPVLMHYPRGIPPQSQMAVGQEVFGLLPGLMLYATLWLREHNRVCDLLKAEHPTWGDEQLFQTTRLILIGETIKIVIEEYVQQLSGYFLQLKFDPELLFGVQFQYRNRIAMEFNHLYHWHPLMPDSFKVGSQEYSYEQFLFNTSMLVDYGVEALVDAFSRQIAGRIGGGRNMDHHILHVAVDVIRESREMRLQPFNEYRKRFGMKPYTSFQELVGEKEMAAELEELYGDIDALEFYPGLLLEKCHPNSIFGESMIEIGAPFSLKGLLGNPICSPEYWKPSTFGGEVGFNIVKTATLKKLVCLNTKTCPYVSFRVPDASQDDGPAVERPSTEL
In words: COX-1 activity in human whole blood (TXB2, calcium ionophore A23187). Type of experiment: cell-based. As to conditions: 24 h at 37° C., A23187 25 μM, TXB2 by EIA. How it is done: as §1
Fresh blood from healthy volunteers who had not taken any non-steroidal anti-inflammatory drugs for at least 7 days prior to blood extraction was collected in heparinized tubes (20 units of heparin per ml). For the COX-1 activity determination, 500 μl aliquots of blood were incubated with either 5 μl vehicle (dimethylsulphoxide) or 5 μl of a test compound for 24 h at 37° C. Calcium ionophore A23187 (25 μM) was added 20 min before stopping the incubation. Plasma was separated by centrifugation (10 min at 13000 rpm) and kept at −30° C. until TXB2 levels were measured using an enzyme immunoassay kit (EIA).
The effect of the compounds was evaluated by incubating each compound at five to six different concentrations with triplicate determinations. IC50 values were obtained by non-linear regression using InPlot, GraphPad software on an IBM computer.

This note sets out measurements from patent US7582676B2, “2-phenylpyran-4-one derivatives as selective COX-2 inhibitors” (Laboratorios Almirall, S.A., priority 2003, dated 2009).

Structures are written as SMILES.

Broadly, the IC50 is the concentration at which inhibition is half-maximal.

As to `Cc1cc(=O)c(Oc2ccc(F)cc2F)c(-c2ccc([S+](C)[O-])cc2)o1` (single isomer, unassigned; enantiomer 1a) [Example 2, 3-(2,4-Difluorophenoxy)-6-methyl-2-[4-(methylsulfinyl)phenyl]-4H-pyran-4-one-Enantiomer 1a], on COX-2, the midpoint of inhibition, the IC50, lay at 2100 nM and the “Ratio COX-1/COX-2” value turned out to be 48.

Turning to `Cc1cc(=O)c(Oc2ccc(Cl)cc2F)c(-c2ccc([S+](C)[O-])cc2)o1` (single isomer, unassigned; enantiomer 4a) [Example 5, 3-4-Chloro-2-fluorophonoxy)-6-methyl-2-[4-(methylsuffinyl)phenyl]-4H-pyran-4-one-Enantiomer 4a], on COX-1, the half-maximal inhibitory concentration (IC50) came to 72900 nM.

For the molecule `Cc1cc(=O)c(Oc2ccc(Br)cc2F)c(-c2ccc([S+](C)[O-])cc2)o1` (single isomer, unassigned; enantiomer 7b) [Example 9, 3-4-Bromo-2-fluorophenoxy)-6-methyl-2-[4-(methylsulfinyl)phenyg]4H-pyran-4-one-Enantiomer 7b], at COX-1, the concentration for half-maximal inhibition (IC50) is 73100 nM. At COX-2, the midpoint of inhibition, the IC50, lay at 170 nM and the “Ratio COX-1/COX-2” value was 430.

Regarding `Cc1cc(=O)c(Oc2ccc(Br)cc2F)c(-c2ccc([S+](C)[O-])cc2)o1` (racemic) [Example 7, 3-(4-Bromo-2-fluorophenoxy)-6-methyl-2-[4-(methylsulfinyl)phenyl]-4H-pyran-4-one], the half-inhibitory concentration (IC50) at COX-1 amounted to 77000 nM. Further, on COX-2, the IC50 is 570 nM and the “Ratio COX-1/COX-2” value is 135.

As to `Cc1cc(=O)c(Oc2ccc(F)cc2F)c(-c2ccc([S+](C)[O-])cc2)o1` (single isomer, unassigned; enantiomer 1b) [Example 3, 3-(2,4-Difluorophenoxy)-6-methyl-2-[4-(methylsulfinyl)phenyl]-4H-pyran4-one-Enantiomer 1b], the IC50 at COX-1 was found to be 86600 nM. Moreover, on COX-2, the IC50 turned out to be 270 nM and the “Ratio COX-1/COX-2” value is reported as 321.

Turning to `Cc1cc(=O)c(Oc2ccc(Br)cc2F)c(-c2ccc([S+](C)[O-])cc2)o1` (single isomer, unassigned; enantiomer 7a) [Example 8, 3-4-Bromo-2-fluorophenoxy)-6-methyl-2-[4-methylsulfinyl)phenyl]-4H-pyran4-one-Enantiomer 7a], the IC50 came out at 32100 nM on COX-1 and 1580 nM at COX-2. Besides, on COX-2, the “Ratio COX-1/COX-2” value was determined as 20.

As to `Cc1cc(=O)c(Oc2ccc(F)cc2F)c(-c2ccc([S+](C)[O-])cc2)o1` (racemic) [Example 1, 3-(2,4-Difluorophenoxy)-6-methyl-2-[4-(methylsulfinyl)phenyl]-4H-pyran4-one], at COX-2, the 50% inhibitory concentration (IC50) worked out at 960 nM and the “Ratio COX-1/COX-2” value is on record as 104.
